Data published in US20180325914A1, “INCREASING STORAGE OF VITAMIN A, VITAMIN D AND/OR LIPIDS” (Salk Institute for Biological Studies, priority 2014, published 2018).

Tested on: primary HSCs

Cc1sc2c(c1C)C(c1ccc(Cl)cc1)=N[C@@H](CC(=O)OC(C)(C)C)c1nnc(C)n1-2 [JQ1, (S)-tert-butyl 2-(4-(4-chlorophenyl)-2,3,9-trimethyl-6H-thieno[3,2-f][1,2,4]triazolo[4,3-a][1,4]diazepin-6-yl)acetate]
Pla2r1 value_2 (gene Pla2r1, mRNA-Seq, sample Day_6_JQ1): 26.6778
Plat value_2 (gene Plat, mRNA-Seq, sample Day_6_JQ1): 141.636
Prelp value_2 (gene Prelp, mRNA-Seq, sample Day_6_JQ1): 1220.99
Prss35 value_2 (gene Prss35, mRNA-Seq, sample Day_6_JQ1): 23.844
Ptms value_2 (gene Ptms, mRNA-Seq, sample Day_6_JQ1): 627.919
Ptrf value_2 (gene Ptrf, mRNA-Seq, sample Day_6_JQ1): 259.645
Qpct value_2 (gene Qpct, mRNA-Seq, sample Day_6_JQ1): 87.1308
Rad51 value_2 (gene Rad51, mRNA-Seq, sample Day_6_JQ1): 12.1115
Rbp1 value_2 (gene Rbp1, mRNA-Seq, sample Day_6_JQ1): 218.378
Reck value_2 (gene Reck, mRNA-Seq, sample Day_6_JQ1): 17.3878
Rrm2 value_2 (gene Rrm2, mRNA-Seq, sample Day_6_JQ1): 68.04
Rtn1 value_2 (gene Rtn1, mRNA-Seq, sample Day_6_JQ1): 47.263
S100a4 value_2 (gene S100a4, mRNA-Seq, sample Day_6_JQ1): 250.226
Sbsn value_2 (gene Sbsn, mRNA-Seq, sample Day_6_JQ1): 16.3231
Scara3 value_2 (gene Scara3, mRNA-Seq, sample Day_6_JQ1): 43.4366
Sdpr value_2 (gene Sdpr, mRNA-Seq, sample Day_6_JQ1): 94.9074
Serpini1 value_2 (gene Serpini1, mRNA-Seq, sample Day_6_JQ1): 12.3234
Sesn3 value_2 (gene Sesn3, mRNA-Seq, sample Day_6_JQ1): 27.3512
Shcbp1 value_2 (gene Shcbp1, mRNA-Seq, sample Day_6_JQ1): 11.9996
Shisa2 value_2 (gene Shisa2, mRNA-Seq, sample Day_6_JQ1): 144.995
Slc2a8 value_2 (gene Slc2a8, mRNA-Seq, sample Day_6_JQ1): 16.1545
Slc9a3r1 value_2 (gene Slc9a3r1, mRNA-Seq, sample Day_6_JQ1): 161.158
Snai2 value_2 (gene Snai2, mRNA-Seq, sample Day_6_JQ1): 23.1888
Spag5 value_2 (gene Spag5, mRNA-Seq, sample Day_6_JQ1): 9.803
Spc25 value_2 (gene Spc25, mRNA-Seq, sample Day_6_JQ1): 27.2563
Svep1 value_2 (gene Svep1, mRNA-Seq, sample Day_6_JQ1): 86.2113
Tbx20 value_2 (gene Tbx20, mRNA-Seq, sample Day_6_JQ1): 54.5866
Tcf19 value_2 (gene Tcf19, mRNA-Seq, sample Day_6_JQ1): 43.53
Timp2 value_2 (gene Timp2, mRNA-Seq, sample Day_6_JQ1): 329.559
Top2a value_2 (gene Top2a, mRNA-Seq, sample Day_6_JQ1): 41.0029
Upk1b value_2 (gene Upk1b, mRNA-Seq, sample Day_6_JQ1): 78.8086
Wdr6 value_2 (gene Wdr6, mRNA-Seq, sample Day_6_JQ1): 56.5942
Zwilch value_2 (gene Zwilch, mRNA-Seq, sample Day_6_JQ1): 13.4294
3110003A17Rik value_2 (mRNA-Seq expression, Day_6_JQ1): 104.778
6330406I15Rik value_2 (mRNA-Seq expression, Day_6_JQ1): 30.5279
9030617O03Rik value_2 (mRNA-Seq expression, Day_6_JQ1): 9.249
AI597468 value_2 (mRNA-Seq expression, Day_6_JQ1): 20.0206
Adam12 value_2 (mRNA-Seq expression, Day_6_JQ1): 22.1402
Adora2b value_2 (mRNA-Seq expression, Day_6_JQ1): 12.9207
Aga value_2 (mRNA-Seq expression, Day_6_JQ1): 42.0303
Ak3 value_2 (mRNA-Seq expression, Day_6_JQ1): 27.7827
Anxa6 value_2 (mRNA-Seq expression, Day_6_JQ1): 122.139
Arhgef10 value_2 (mRNA-Seq expression, Day_6_JQ1): 5.987
Ass1 value_2 (mRNA-Seq expression, Day_6_JQ1): 41.1545
Atp8b2 value_2 (mRNA-Seq expression, Day_6_JQ1): 19.4721
Btg2 value_2 (mRNA-Seq expression, Day_6_JQ1): 38.7075
C1qtnf1 value_2 (mRNA-Seq expression, Day_6_JQ1): 19.1118
C1qtnf6 value_2 (mRNA-Seq expression, Day_6_JQ1): 58.5752
Cav1 value_2 (mRNA-Seq expression, Day_6_JQ1): 17.5128
Ccdc104 value_2 (mRNA-Seq expression, Day_6_JQ1): 19.7014
Ccdc109b value_2 (mRNA-Seq expression, Day_6_JQ1): 9.232
Cdc42bpa value_2 (mRNA-Seq expression, Day_6_JQ1): 16.5997
Cdkn2b value_2 (mRNA-Seq expression, Day_6_JQ1): 41.7085
Chst14 value_2 (mRNA-Seq expression, Day_6_JQ1): 18.8651
Ckap4 value_2 (mRNA-Seq expression, Day_6_JQ1): 147.656
Cnn2 value_2 (mRNA-Seq expression, Day_6_JQ1): 222.556
Col5a1 value_2 (mRNA-Seq expression, Day_6_JQ1): 106.143
Col5a2 value_2 (mRNA-Seq expression, Day_6_JQ1): 372.729
Col6a1 value_2 (mRNA-Seq expression, Day_6_JQ1): 47.4496
Col8a1 value_2 (mRNA-Seq expression, Day_6_JQ1): 69.7251
Cpe value_2 (mRNA-Seq expression, Day_6_JQ1): 54.9734
Cpz value_2 (mRNA-Seq expression, Day_6_JQ1): 4.843
Csrp1 value_2 (mRNA-Seq expression, Day_6_JQ1): 294.801
Cygb value_2 (mRNA-Seq expression, Day_6_JQ1): 51.8956
Cyp51 value_2 (mRNA-Seq expression, Day_6_JQ1): 13.4382
Dcaf12l1 value_2 (mRNA-Seq expression, Day_6_JQ1): 3.456
Dlg4 value_2 (mRNA-Seq expression, Day_6_JQ1): 9.101
Dnajb4 value_2 (mRNA-Seq expression, Day_6_JQ1): 44.3814
Dst value_2 (mRNA-Seq expression, Day_6_JQ1): 16.9506
Eda2r value_2 (mRNA-Seq expression, Day_6_JQ1): 23.0105
Efemp2 value_2 (mRNA-Seq expression, Day_6_JQ1): 169.818
Epdr1 value_2 (mRNA-Seq expression, Day_6_JQ1): 7.336
Evc2 value_2 (mRNA-Seq expression, Day_6_JQ1): 7.337
Fam114a1 value_2 (mRNA-Seq expression, Day_6_JQ1): 29.7898
Fam115c value_2 (mRNA-Seq expression, Day_6_JQ1): 4.611
Fam149a value_2 (mRNA-Seq expression, Day_6_JQ1): 4.452
Fam189b value_2 (mRNA-Seq expression, Day_6_JQ1): 7.431
Fgf18 value_2 (mRNA-Seq expression, Day_6_JQ1): 10.4873
Fhl2 value_2 (mRNA-Seq expression, Day_6_JQ1): 40.1985
Flnc value_2 (mRNA-Seq expression, Day_6_JQ1): 24.3492
Fzd2 value_2 (mRNA-Seq expression, Day_6_JQ1): 16.4688
Gabra3 value_2 (mRNA-Seq expression, Day_6_JQ1): 14.8418
Gas6 value_2 (mRNA-Seq expression, Day_6_JQ1): 41.2636
Gm5424 value_2 (mRNA-Seq expression, Day_6_JQ1): 5.331
Gpx8 value_2 (mRNA-Seq expression, Day_6_JQ1): 110.547
Grhpr value_2 (mRNA-Seq expression, Day_6_JQ1): 13.8722
Gria3 value_2 (mRNA-Seq expression, Day_6_JQ1): 4.78
Igfbp3 value_2 (mRNA-Seq expression, Day_6_JQ1): 483.66
Igsf8 value_2 (mRNA-Seq expression, Day_6_JQ1): 44.7273
Il1rap value_2 (mRNA-Seq expression, Day_6_JQ1): 20.7058
Inpp5a value_2 (mRNA-Seq expression, Day_6_JQ1): 33.3765
Isoc2b value_2 (mRNA-Seq expression, Day_6_JQ1): 4.059
Kif1a value_2 (mRNA-Seq expression, Day_6_JQ1): 6.57
LOC100616095 value_2 (mRNA-Seq expression, Day_6_JQ1): 13.992
Lama2 value_2 (mRNA-Seq expression, Day_6_JQ1): 9.263
Lars2 value_2 (mRNA-Seq expression, Day_6_JQ1): 12.6226
Lpp value_2 (mRNA-Seq expression, Day_6_JQ1): 24.9042
Lrig3 value_2 (mRNA-Seq expression, Day_6_JQ1): 4.218
Lrrn4 value_2 (mRNA-Seq expression, Day_6_JQ1): 11.7356
Maged2 value_2 (mRNA-Seq expression, Day_6_JQ1): 60.8426
Mboat7 value_2 (mRNA-Seq expression, Day_6_JQ1): 28.6438
Meg3 value_2 (mRNA-Seq expression, Day_6_JQ1): 15.1775
Mlec value_2 (mRNA-Seq expression, Day_6_JQ1): 92.0676
Mmgt2 value_2 (mRNA-Seq expression, Day_6_JQ1): 10.425
Mmp2 value_2 (mRNA-Seq expression, Day_6_JQ1): 73.6315
Mpp2 value_2 (mRNA-Seq expression, Day_6_JQ1): 4.639
